What was measured:
bovine cardiac myosin = bovine cardiac myosin (Bos taurus, UniProt Q9BE39); experiment: Myosin inhibition assay (PK/LDH-coupled ATPase, bovine cardiac myofibrils); format: biochemical; settings: calcium concentration giving 50% activation, pH 6.8, read-out: bcMF pCa_6 IC50
[1] = test system: adult rat ventricular myocytes; experiment: Cardiomyocyte contractility assay (fractional shortening, IonOptix edge detection); format: cell-based; settings: 1 Hz pacing
Experimental: Contractility of adult rat ventricular myocytes is determined by edge detection with an IonOptix contractility system. Aliquots of myocytes in Tyrode buffer (137 mM NaCl, 3.7 mM KCL, 0.5 mM MgCl2, 1.5 mM CaCl2, 4 mM HEPES, 11 mM glucose) are placed in a perfusion chamber (Series 20 RC-27NE; Warner Instruments), allowed to adhere to the coverslip, and then perfused with 37° C. Tyrode buffer. Myocytes are filed stimulated at 1 Hz and 10V. Only myocytes with clear striations, quiescent prior to pacing, with a cell length of 120-180 microns, a basal fractional shortening equal to 3-8% of the cell length, and a contraction velocity greater than 100 microns per second are used for contractility experiments. To determine the response to compounds, myocytes are first perfused for 60 seconds with Tyrodes buffer followed by 5 minutes of compound and a 140 second washout with Tyrodes buffer. Data is continuously recorded using IonOptix software. Contractility data is analyzed using Ionwizard software (IonOptix). For each cell, 10-20 contractility transients were averaged and compared under basal (no compound) and compound-treated conditions. Compound activity is measured by effects on fractional shortening (FS), where fractional shortening is the ratio of the peak length of the cell at contraction divided by the basal cell length normalized to 100% for an untreated cell.

Sequence of bovine cardiac myosin (Q9BE39 whole entry): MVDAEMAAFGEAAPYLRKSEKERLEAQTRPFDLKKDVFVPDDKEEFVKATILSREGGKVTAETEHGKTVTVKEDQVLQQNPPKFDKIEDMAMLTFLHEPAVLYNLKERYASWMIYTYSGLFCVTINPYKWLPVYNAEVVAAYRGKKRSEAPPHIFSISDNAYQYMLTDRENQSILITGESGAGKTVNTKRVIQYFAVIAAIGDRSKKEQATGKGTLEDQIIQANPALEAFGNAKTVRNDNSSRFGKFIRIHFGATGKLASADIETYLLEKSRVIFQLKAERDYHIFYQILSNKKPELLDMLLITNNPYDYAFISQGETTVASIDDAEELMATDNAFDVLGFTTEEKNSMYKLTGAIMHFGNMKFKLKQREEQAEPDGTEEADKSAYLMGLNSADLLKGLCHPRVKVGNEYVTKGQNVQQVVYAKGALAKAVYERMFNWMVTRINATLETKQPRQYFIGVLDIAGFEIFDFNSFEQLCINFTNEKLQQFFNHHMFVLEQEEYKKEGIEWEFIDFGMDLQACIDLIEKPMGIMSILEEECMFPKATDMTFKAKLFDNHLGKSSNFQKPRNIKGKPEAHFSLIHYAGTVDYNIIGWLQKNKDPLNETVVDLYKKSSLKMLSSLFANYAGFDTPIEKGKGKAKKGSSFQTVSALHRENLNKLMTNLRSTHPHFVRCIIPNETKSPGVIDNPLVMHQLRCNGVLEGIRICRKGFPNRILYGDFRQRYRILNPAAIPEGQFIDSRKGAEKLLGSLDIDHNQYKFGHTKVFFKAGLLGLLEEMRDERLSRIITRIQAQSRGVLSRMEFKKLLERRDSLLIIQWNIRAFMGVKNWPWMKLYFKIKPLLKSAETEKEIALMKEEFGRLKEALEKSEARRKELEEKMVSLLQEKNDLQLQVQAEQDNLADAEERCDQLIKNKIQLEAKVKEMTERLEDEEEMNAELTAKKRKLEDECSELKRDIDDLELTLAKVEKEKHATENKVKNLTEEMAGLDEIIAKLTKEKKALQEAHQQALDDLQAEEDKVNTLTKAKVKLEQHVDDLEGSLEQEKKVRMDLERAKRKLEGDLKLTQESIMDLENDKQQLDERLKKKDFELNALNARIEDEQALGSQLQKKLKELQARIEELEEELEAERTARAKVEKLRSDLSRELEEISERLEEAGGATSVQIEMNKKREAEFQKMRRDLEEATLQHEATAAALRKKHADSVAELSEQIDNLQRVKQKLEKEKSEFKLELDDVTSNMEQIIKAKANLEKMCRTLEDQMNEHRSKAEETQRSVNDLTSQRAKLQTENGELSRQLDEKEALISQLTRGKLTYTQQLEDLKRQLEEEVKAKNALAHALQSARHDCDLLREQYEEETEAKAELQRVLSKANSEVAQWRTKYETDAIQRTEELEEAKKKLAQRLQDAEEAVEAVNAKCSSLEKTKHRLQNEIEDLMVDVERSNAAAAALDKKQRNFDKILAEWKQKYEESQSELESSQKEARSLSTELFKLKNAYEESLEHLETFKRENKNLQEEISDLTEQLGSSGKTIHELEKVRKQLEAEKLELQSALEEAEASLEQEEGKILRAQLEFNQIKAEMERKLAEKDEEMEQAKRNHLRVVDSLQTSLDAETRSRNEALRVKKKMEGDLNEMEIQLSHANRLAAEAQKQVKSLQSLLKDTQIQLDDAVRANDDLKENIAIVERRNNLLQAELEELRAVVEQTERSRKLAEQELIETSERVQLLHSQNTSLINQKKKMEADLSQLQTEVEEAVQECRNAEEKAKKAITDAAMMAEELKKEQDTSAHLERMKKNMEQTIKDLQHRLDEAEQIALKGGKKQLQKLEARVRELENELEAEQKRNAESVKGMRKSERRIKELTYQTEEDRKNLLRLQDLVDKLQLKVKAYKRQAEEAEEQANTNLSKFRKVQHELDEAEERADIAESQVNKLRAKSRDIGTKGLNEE
Sequence of bovine cardiac myosin (P85100 whole entry partner): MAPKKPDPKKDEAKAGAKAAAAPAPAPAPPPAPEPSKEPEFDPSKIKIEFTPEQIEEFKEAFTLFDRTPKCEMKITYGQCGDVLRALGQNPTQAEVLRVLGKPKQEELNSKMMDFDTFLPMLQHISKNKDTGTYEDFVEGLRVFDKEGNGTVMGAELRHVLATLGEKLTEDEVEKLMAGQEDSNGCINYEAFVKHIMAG
Sequence of bovine cardiac myosin (Q3SZE5 whole entry partner): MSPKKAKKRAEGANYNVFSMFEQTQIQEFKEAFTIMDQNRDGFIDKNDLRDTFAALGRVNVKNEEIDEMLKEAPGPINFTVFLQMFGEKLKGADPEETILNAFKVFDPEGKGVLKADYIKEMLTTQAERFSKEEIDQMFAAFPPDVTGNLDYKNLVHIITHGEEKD

IC50 (bovine cardiac myosin) [nM]	Molecule	inhibition at 0.1 µM ([1]; Ventricular myocyte, 0.1 μM compound) [%]	inhibition at 0.3 µM ([1]; Ventricular myocyte, 0.3 μM compound) [%]	inhibition at 1 µM ([1]; Ventricular myocyte, 1.0 μM compound) [%]	Activity at 0.3 μM (fractional shortening inhibition) ([1]; 0.3 μM compound)
< 1000	CC(C)n1c(=O)[nH]c2c(c1=O)CC[C@](C)(c1ccccc1)N2 [Compound 106]	> 66	–	–	–
1000 to 15000	(R)-3-Isopropyl-7-phenyl-7,8-dihydropyrido[2,3-d]pyrimidine-2,4,5(1H,3H,6H)-trione [Compound 1]	–	–	–	++ (++ represents fractional shorting inhibition values from 33% to 66%)

Molecule	IC50 (bovine cardiac myosin) [nM]	inhibition at 0.1 µM ([1]; Ventricular myocyte, 0.1 μM compound) [%]	inhibition at 0.3 µM ([1]; Ventricular myocyte, 0.3 μM compound) [%]	inhibition at 1 µM ([1]; Ventricular myocyte, 1.0 μM compound) [%]	Activity at 0.3 μM (fractional shortening inhibition) ([1]; 0.3 μM compound)
CC(C)n1c(=O)[nH]c2c(c1=O)CC(F)(F)[C@H](c1ccccc1)N2 [Compound 116, (S)-6,6-Difluoro-3-isopropyl-7-phenyl-5,6,7,8-tetrahydropyrido[2,3-d]pyrimidine-2,4(1H,3H)-dione]	1000 to 15000	–	33 to 66	> 66	–
